Values joined by “and” are separate entries in the source; they are usually repeats but may differ in a detail not shown here. Equal entries are not always repeated.
How the values were obtained:
PRMT5:MEP50 = system: PRMT5:MEP50; design: method as in ref 1 (a number printed in a supplementary file, which may have a reference list of its own: not looked up in the article's list); settings: HTRF, H4R3 monomethylation; read-out: Biochemical (nM), IC50; cited from earlier work
MAT2A [1] = assay: BRET probe sensitivity to MAT2A inhibition (Compound A) in live HEK293 cells expressing NLuc-PRMT5; format: cell-based; settings: Log([Compound A]), 37 °C
MAT2A [2] = assay: as above; format: cell-based; settings: for normalized BRET signal (Figure S3D) / Normalized BRET probe signal: Log([Compound A]); for normalized BRET signal (Figure S3D): replicates; for Normalized BRET probe signal: 37 °C
Description: To measure BRET probe sensitivity to both MAT2A inhibition and exogenous MTA in live cells, HEK293 cells were pre-treated with 30 nM CBH-002 and incubated at 37 °C and 5% CO2 for 2 h. For MAT2A inhibition, a 20 µM, 3-fold, 11 pt titration series of Compound A (Selleckchem) was added to wells. Cells were incubated either at 37 °C (Fig. 3D) or room temperature (Fig. S3D). Data were normalized using Eq. (2), where BRETMIN = instrument background (no CBH-002), and BRETMAX = 2 h vehicle treatment, and fit curves were generated using Eq. (1). For MTA sensitivity cells were treated with a 1 mM, 11 pt, 2-fold series of MTA (Sigma) and cells were incubated at room temperature for 2 h, reading in 15 min intervals. Data were normalized using Eq. (2), where BRETMIN = instrument background (no CBH-002), and BRETMAX = 2 h + vehicle treatment. Data were fit with Eq. (1).

[3] = target: NLuc-PRMT5 co-expressed with WDR77 (Homo sapiens, UniProt O14744); assay: Compound EC50 titrations against MTA, NanoBRET in HEK293 (NLuc-PRMT5 + WDR77), with global Gaddum/Schild or Morrison fits
Sequence of NLuc-PRMT5 co-expressed with WDR77 (O14744 whole entry): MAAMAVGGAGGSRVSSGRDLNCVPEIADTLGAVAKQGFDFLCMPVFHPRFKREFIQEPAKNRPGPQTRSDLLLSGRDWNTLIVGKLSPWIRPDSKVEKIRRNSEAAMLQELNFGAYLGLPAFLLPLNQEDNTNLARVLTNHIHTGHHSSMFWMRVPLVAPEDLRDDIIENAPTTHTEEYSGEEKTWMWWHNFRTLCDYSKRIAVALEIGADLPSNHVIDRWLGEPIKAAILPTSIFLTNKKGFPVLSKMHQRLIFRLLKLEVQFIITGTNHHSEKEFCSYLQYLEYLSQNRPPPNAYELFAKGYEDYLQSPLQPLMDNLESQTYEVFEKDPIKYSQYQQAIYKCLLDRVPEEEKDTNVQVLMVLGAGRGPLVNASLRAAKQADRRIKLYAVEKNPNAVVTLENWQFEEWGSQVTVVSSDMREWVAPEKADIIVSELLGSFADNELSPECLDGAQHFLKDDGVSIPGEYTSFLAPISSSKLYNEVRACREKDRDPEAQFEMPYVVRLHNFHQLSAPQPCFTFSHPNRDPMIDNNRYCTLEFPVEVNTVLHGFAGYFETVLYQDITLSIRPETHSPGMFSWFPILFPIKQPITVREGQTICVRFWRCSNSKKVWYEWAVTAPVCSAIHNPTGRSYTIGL
Sequence of NLuc-PRMT5 co-expressed with WDR77 (Q9BQA1 whole entry partner): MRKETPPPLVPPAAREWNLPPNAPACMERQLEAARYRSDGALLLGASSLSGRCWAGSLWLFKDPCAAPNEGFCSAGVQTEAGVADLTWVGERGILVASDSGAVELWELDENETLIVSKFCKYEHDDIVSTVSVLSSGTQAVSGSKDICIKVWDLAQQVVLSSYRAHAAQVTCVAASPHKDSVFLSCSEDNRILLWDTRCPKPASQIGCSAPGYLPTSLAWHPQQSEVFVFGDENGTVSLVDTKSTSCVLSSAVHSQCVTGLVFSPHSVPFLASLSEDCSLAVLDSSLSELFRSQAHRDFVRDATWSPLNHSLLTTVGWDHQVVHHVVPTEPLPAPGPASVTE
Description: MTA (Sigma) was prepared at 100× in 100% DMSO and diluted to 10× in Opti-MEM. Inhibitors were run as 11 pt, 3-fold dilution curves and MTA as a seven point, 3-fold dilution curve starting at 100 μM. Cells were incubated for 2 h at 37 °C and 5% CO2 prior to BRET measurements. Data was normalized using Eq. (2) where BRETMIN = saturating compound + maximum [MTA], and BRETMAX = BRET signal under vehicle conditions. Curves were fit using Eq. (3), and EC50 values were plotted against MTA concentration to determine the linear range of MTA detection.

Z-138 cells = system: Z-138 cells; design: method as in ref 2,3 (a number printed in a supplementary file, which may have a reference list of its own: not looked up in the article's list); settings: read-out: Proliferation (nM), IC50; cited from earlier work

For `CC(=O)N1CCC(Nc2cc(C(=O)NC[C@H](O)CN3CCc4ccccc4C3)ncn2)CC1` [GSK3326595], the IC50 (PRMT5:MEP50) is listed as 6.2 nM.

In the case of `Nc1nc(=O)n(-c2ccccc2Cl)c2nc(C(F)(F)F)ccc12` [Compound A], the “Normalized BRET probe signal” value (MAT2A [1]; uM 0.82, Time (h) 6) is reported as 54.59 and 55.03 and 49.39, the “Normalized BRET probe signal” value (MAT2A [1]; uM 1.30, Time (h) 2) is reported as 83.43 and 85.48 and 85.77 and the “Normalized BRET probe signal” value (MAT2A [1]; uM 1.30, Time (h) 5) is reported as 54.62 and 56.32 and 57.46. For the same molecule, the “Normalized BRET probe signal” value (MAT2A [1]; uM -1.56, Time (h) 4) was 64.62 and 64.77 and 65.94, the “normalized BRET signal (Figure S3D)” value (MAT2A [2]; uM 0.35, Time 0 min) was 102.31 and 101.27 and 102.49 and the “normalized BRET signal (Figure S3D)” value (MAT2A [2]; uM 0.35, Time 15 min) was 102.22 and 100.75 and 100.92. For the same molecule, the “normalized BRET signal (Figure S3D)” value (MAT2A [2]; uM 0.35, Time 30 min) was 98.94 and 102.77 and 99.88, the “normalized BRET signal (Figure S3D)” value (MAT2A [2]; uM 0.35, Time 45 min) was 101.50 and 99.61 and 97.49 and the “normalized BRET signal (Figure S3D)” value (MAT2A [2]; uM 0.35, Time 60 min) was 100.91 and 99.04 and 97.98. For the same molecule, the “normalized BRET signal (Figure S3D)” value (MAT2A [2]; uM 0.35, Time 75 min) was 100.10 and 98.57 and 96.49, the “normalized BRET signal (Figure S3D)” value (MAT2A [2]; uM 0.35, Time 90 min) was 99.02 and 98.37 and 97.43 and the “normalized BRET signal (Figure S3D)” value (MAT2A [2]; uM 0.35, Time 120 min) was 96.41 and 97.99 and 95.04. For the same molecule, the “normalized BRET signal (Figure S3D)” value (MAT2A [2]; uM 0.82, Time 0 min) was 101.24 and 100.09 and 103.66, the “normalized BRET signal (Figure S3D)” value (MAT2A [2]; uM 0.82, Time 15 min) was 101.29 and 99.47 and 102.07 and the “normalized BRET signal (Figure S3D)” value (MAT2A [2]; uM 0.82, Time 30 min) was 99.28 (2×) and 100.85. The “normalized BRET signal (Figure S3D)” value (MAT2A [2]; uM 0.82, Time 45 min) was 99.67 and 98.96 and 100.10, the “normalized BRET signal (Figure S3D)” value (MAT2A [2]; uM 0.82, Time 60 min) was 100.24 and 98.62 and 99.55 and the “normalized BRET signal (Figure S3D)” value (MAT2A [2]; uM 0.82, Time 75 min) was 100.92 and 98.42 and 98.44. The “normalized BRET signal (Figure S3D)” value (MAT2A [2]; uM 0.82, Time 90 min) was 100.92 and 98.07 and 97.73, the “normalized BRET signal (Figure S3D)” value (MAT2A [2]; uM 0.82, Time 120 min) was 98.05 and 98.30 and 97.43 and the “Normalized BRET probe signal” value (MAT2A [2]; uM 0.82, Time (h) 2) was 80.32 and 82.63 and 81.99. For the same molecule, the “Normalized BRET probe signal” value (MAT2A [2]; uM 0.82, Time (h) 4) was 62.79, the “Normalized BRET probe signal” value (MAT2A [2]; uM 0.82, Time (h) 5) was 55.09 and 56.94 and 59.00 and the “normalized BRET signal (Figure S3D)” value (MAT2A [2]; uM 1.30, Time 0 min) was 100.00. The “normalized BRET signal (Figure S3D)” value (MAT2A [2]; uM 1.30, Time 15 min) was 100.00, the “normalized BRET signal (Figure S3D)” value (MAT2A [2]; uM 1.30, Time 30 min) was 100.00 and the “normalized BRET signal (Figure S3D)” value (MAT2A [2]; uM 1.30, Time 45 min) was 100.00. For the same molecule, the “normalized BRET signal (Figure S3D)” value (MAT2A [2]; uM 1.30, Time 60 min) was 100.00, the “normalized BRET signal (Figure S3D)” value (MAT2A [2]; uM 1.30, Time 75 min) was 100.00 and the “normalized BRET signal (Figure S3D)” value (MAT2A [2]; uM 1.30, Time 90 min) was 100.00. For the same molecule, the “normalized BRET signal (Figure S3D)” value (MAT2A [2]; uM 1.30, Time 120 min) was 100.00, the “Normalized BRET probe signal” value (MAT2A [2]; uM 1.30, Time (h) 3) was 81.83 and 81.36 and 78.63 and the “Normalized BRET probe signal” value (MAT2A [2]; uM 1.30, Time (h) 4) was 64.66 and 66.78 and 66.04. The “Normalized BRET probe signal” value (MAT2A [2]; uM 1.30, Time (h) 6) was 52.27 and 54.37 and 54.09, the “normalized BRET signal (Figure S3D)” value (MAT2A [2]; uM 1.30, Time […]) was 100.00 and the “normalized BRET signal (Figure S3D)” value (MAT2A [2]; uM -0.13, Time 0 min) was 102.61. The “normalized BRET signal (Figure S3D)” value (MAT2A [2]; uM -0.13, Time 30 min) was 99.28, the “normalized BRET signal (Figure S3D)” value (MAT2A [2]; uM -0.13, Time 45 min) was 99.89 and 99.35 and 98.26 and the “normalized BRET signal (Figure S3D)” value (MAT2A [2]; uM -0.13, Time 60 min) was 99.27 and 98.76 and 97.87. For the same molecule, the “normalized BRET signal (Figure S3D)” value (MAT2A [2]; uM -0.13, Time 75 min) was 99.29 and 98.14 and 96.57, the “normalized BRET signal (Figure S3D)” value (MAT2A [2]; uM -0.13, Time 90 min) was 99.41 and 97.78 and 96.89 and the “normalized BRET signal (Figure S3D)” value (MAT2A [2]; uM -0.13, Time 120 min) was 97.11 and 97.69. The “Normalized BRET probe signal” value (MAT2A [2]; uM -1.56, Time (h) 2) was 86.27 and 89.51 and 86.94, the “Normalized BRET probe signal” value (MAT2A [2]; uM -1.56, Time (h) 3) was 78.52 and 78.24 and 76.36 and the “Normalized BRET probe signal” value (MAT2A [2]; uM -1.56, Time (h) 5) was 56.30 and 59.42 and 61.19. For the same molecule, the “Normalized BRET probe signal” value (MAT2A [2]; uM -1.56, Time (h) 6) was 57.39 and 58.36 and 56.05, the “Normalized BRET probe signal” value (MAT2A [2]; uM -2.04, Time (h) 2) was 91.78 and 93.83 and 92.35 and the “Normalized BRET probe signal” value (MAT2A [2]; uM -2.04, Time (h) 3) was 84.09 and 82.20 and 80.64. The “Normalized BRET probe signal” value (MAT2A [2]; uM -2.04, Time (h) 4) was 71.87 and 73.84 and 72.51, the “Normalized BRET probe signal” value (MAT2A [2]; uM -2.04, Time (h) 5) was 61.86 and 65.39 and 67.66 and the “Normalized BRET probe signal” value (MAT2A [2]; uM -2.04, Time (h) 6) was 67.16 and 64.98 and 63.98. The “Normalized BRET probe signal” value (MAT2A [2]; uM -2.52, Time (h) 2) was 97.92 and 101.07 and 97.78, the “Normalized BRET probe signal” value (MAT2A [2]; uM -2.52, Time (h) 3) was 92.42 and 90.78 and 89.69 and the “Normalized BRET probe signal” value (MAT2A [2]; uM -2.52, Time (h) 4) was 81.28 and 83.71 and 82.94. The “Normalized BRET probe signal” value (MAT2A [2]; uM -2.52, Time (h) 5) was 74.64 and 76.80 and 79.27, the “Normalized BRET probe signal” value (MAT2A [2]; uM -2.52, Time (h) 6) was 75.70 and 75.54 and 75.07 and the “Normalized BRET probe signal” value (MAT2A [2]; uM -2.99, Time (h) 2) was 99.19 and 102.22 and 99.77. For the same molecule, the “Normalized BRET probe signal” value (MAT2A [2]; uM -2.99, Time (h) 3) was 95.84 and 93.35 and 94.20, the “Normalized BRET probe signal” value (MAT2A [2]; uM -2.99, Time (h) 4) was 94.50 and 92.51 and 93.76 and the “Normalized BRET probe signal” value (MAT2A [2]; uM -2.99, Time (h) 5) was 87.56 and 91.04 and 95.19. The “Normalized BRET probe signal” value (MAT2A [2]; uM -2.99, Time (h) 6) was 89.25 and 91.90 and 87.75, the “Normalized BRET probe signal” value (MAT2A [2]; uM -3.47, Time (h) 2) was 98.78 and 102.46 and 100.43 and the “Normalized BRET probe signal” value (MAT2A [2]; uM -3.47, Time (h) 3) was 98.17 and 97.18 and 96.26. The “Normalized BRET probe signal” value (MAT2A [2]; uM -3.47, Time (h) 4) was 96.70 and 95.88 and 97.43, the “Normalized BRET probe signal” value (MAT2A [2]; uM -3.47, Time (h) 5) was 93.94 and 96.00 and 96.68 and the “Normalized BRET probe signal” value (MAT2A [2]; uM -3.47, Time (h) 6) was 97.50 and 96.53 and 90.92. For the same molecule, the “Time to plateau of BRET inhibition” value (MAT2A [2]; live cells, pre-equilibrated CBH-002, 37 °C) was ~ 5 h and the “Effect on CBH-002 binding at room temperature” value (MAT2A [2]; room temperature, 2-h interval) was “did not impact CBH-002 binding”.

With `O=C(NC[C@H](O)CN1CCc2ccccc2C1)c1cc(NC2COC2)ncn1` [EPZ015666] the Schild slope ([3]; Global Gaddum/Schild EC50 shift fit, MTA titration, HEK293) was 1.3 (1.15 - 1.47), the Hill slope ([3]; [MTA] 0 μM, HEK293) was 0.81 and the Hill slope ([3]; [MTA] 11.11 μM, HEK293) was 0.77. For the same molecule, the Hill slope ([3]; [MTA] 100 μM, HEK293) was 0.72, the Hill slope ([3]; [MTA] 300 μM, HEK293) was 0.87 and the “Hill slope (Global/Schild fit)” value ([3]; constant across [MTA], constrained to 1 for PF06939999 and GSK3326595) was 0.75 (0.73 - 0.78). The IC50 (Z-138 cells) was 62 nM.

From publication PMC12675575, “A BRET biosensor for measuring uncompetitive engagement of PRMT5 complexes in cells” (Nature Communications, 2025)
